We go through 1 compound from US20180028473A1, “NUTRIENTS SOLUTIONS” (Mitochondrial Substrate Invention Ltd., priority 2014, published 2018).

For data set [1], the system named is Cognitively healthy young adult male Wistar rats. Briefly: Passive avoidance test, scopolamine given 7 days after end of supplementation. The format is in vivo, rat.
Experimental: Cognitively healthy young adult male Wistar rats weighing 260-280 g were randomly ascribed to groups and supplemented daily with aqueous solution of 5 mg/kg of compound of formula (I) in water of the invention for seven consecutive days. Then, after the break in the supplementation for next seven days, scopolamine 1 mg/kg i.p. or vehicle was administered (at day 14) 30 min before the acquisition trial in the passive avoidance test (“Compound (I)+Scopolamine” group). In “Vehicle+Vehicle” group, rats received vehicle for seven consecutive days and then vehicle 30 min before the acquisition trial in the passive avoidance test at 14th day. In “Vehicle+Scopolamine” group, rats received vehicle for seven consecutive days and then scopolamine 1 mg/kg i.p. 30 min before the acquisition trial in the passive avoidance test at 14th day. […] Passive avoidance test requires the rats to behave contrary to their innate tendencies for preference of dark areas and avoidance of bright ones. The apparatus used in this test is composed by a dark compartment and a bright compartment. The latency to enter the dark chamber was measured using 300 s maximum trial duration. In the acquisition trial, the animal received a 0.4 mA electric shock for 3 s when entering the dark chamber. Retention trial was performed 24 h after the acquisition trial. […]
The conditions of data set [2]: in vivo; cited from earlier work.

For the compound `C[N+](C)(C)CCO` [compound of formula (I), choline succinate (2:1)], the “Relative risk of disturbance of cognitive function” value in data set [1] (as compared to Vehicle+Scopolamine group) came to 0.51. For the same compound, in data set [1] (retention trial, scopolamine 1 mg/kg i.p.), the “Rate of disturbance of cognitive function (latency <207 s)” value is on record as 0.36. Moreover, the elimination half-life result in data set [2] was “less than 1.2 h”.
